{"source": "paper PMC12386367", "about": "“Importin α3 Is Tolerant to Nuclear Localization Signal Chirality” (International Journal of Molecular Sciences, 2025)", "key": {"[1]": {"target": "T1, Impα3 (Homo sapiens, UniProt O00629)", "T1 construct": "Human importin α3 isoform (residues 1–521); made in house", "T1 sequence (O00629 1-521)": "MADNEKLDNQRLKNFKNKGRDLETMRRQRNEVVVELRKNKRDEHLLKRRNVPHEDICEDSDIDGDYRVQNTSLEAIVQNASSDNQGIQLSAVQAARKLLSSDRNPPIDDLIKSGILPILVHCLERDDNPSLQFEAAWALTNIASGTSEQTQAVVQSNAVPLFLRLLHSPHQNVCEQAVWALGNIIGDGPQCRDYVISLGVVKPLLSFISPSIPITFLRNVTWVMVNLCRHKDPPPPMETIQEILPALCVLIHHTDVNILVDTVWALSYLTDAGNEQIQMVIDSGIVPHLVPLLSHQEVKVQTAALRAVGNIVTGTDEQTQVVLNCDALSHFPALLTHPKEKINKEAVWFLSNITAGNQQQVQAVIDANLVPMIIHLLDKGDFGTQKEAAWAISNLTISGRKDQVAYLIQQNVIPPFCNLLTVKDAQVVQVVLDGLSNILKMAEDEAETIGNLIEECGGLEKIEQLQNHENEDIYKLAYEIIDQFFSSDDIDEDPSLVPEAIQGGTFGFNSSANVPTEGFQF", "test": "Isothermal titration calorimetry (ITC) with Impα3", "format": "binding", "conditions": "Impα3, 50 mM Tris pH 8.0, 25 °C", "experimental": "(§1) Calorimetric titrations for testing the interaction of D-NLS peptides with either Impα3 or ΔImpα3 were carried out in an VP-ITC instrument (Microcal, Northhamptom, MA, USA). The importin species were loaded into the cell calorimeter and the corresponding D-NLS peptide in the syringe in Tris buffer 50 mM, pH 8.0. All experiments were carried out at 25 °C.\n(§2) These twenty-nine ITC experiments involved sequential injections of microliter amounts (10 µL) of a stock solution of D-NLS peptide (in a concentration range of 150–200 µM) into the calorimetric cell (1.4 mL); the cell initially contained protein solution (15 µM for either Impα3 or ΔImpα3 in protomer units). To correct for the heat evolved due to the dilution effect for adding the ligand (peptide) solution to the calorimetric cell, an independent experiment was performed, in which the same peptide solution was injected into the calorimetric cell loaded with buffer. After correction for the dilution heat, the isotherm was fitted to a binding model that assumed the existence of a single set of binding sites, by using the software v1.41 provided by the manufacturer."}, "[2]": {"target": "T2, ∆Impα3 (Homo sapiens, UniProt O00629)", "T2 construct": "IBB-depleted species of Impα3 (residues 64–521 of the intact protein); made in house", "T2 sequence (O00629 64-521)": "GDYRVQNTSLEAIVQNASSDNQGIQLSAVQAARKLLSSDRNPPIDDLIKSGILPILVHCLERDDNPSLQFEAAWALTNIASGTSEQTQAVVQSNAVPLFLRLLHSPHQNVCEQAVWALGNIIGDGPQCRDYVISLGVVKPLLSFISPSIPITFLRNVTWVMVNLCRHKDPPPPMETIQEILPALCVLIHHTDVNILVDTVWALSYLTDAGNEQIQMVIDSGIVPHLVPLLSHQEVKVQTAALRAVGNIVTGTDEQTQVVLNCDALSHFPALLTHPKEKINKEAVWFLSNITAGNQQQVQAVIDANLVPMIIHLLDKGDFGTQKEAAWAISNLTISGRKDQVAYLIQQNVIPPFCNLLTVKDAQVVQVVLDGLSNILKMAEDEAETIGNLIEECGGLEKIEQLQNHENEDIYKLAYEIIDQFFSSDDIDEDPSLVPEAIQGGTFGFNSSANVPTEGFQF", "test": "Isothermal titration calorimetry (ITC) with ∆Impα3", "format": "binding", "conditions": "∆Impα3, 50 mM Tris pH 8.0, 25 °C", "experimental": "as §1, §2"}, "[3]": {"target": "T2, ∆Impα3", "test": "Biolayer interferometry (BLI) binding to ∆Impα3", "conditions": "BLItz, ∆Impα3 immobilized via His-tag (0.25 μM), peptide 1–10 μM, 10 × kinetics buffer, 25 °C, error from pseudo-first order fit, at least two repeats, read-out: kon", "experimental": "(§3) The association (kon) and dissociation (koff) rate constants of the binding of D-NLS peptides to either Impα3 or ∆Impα3 were determined by using a BLItz system (ForteBio, Pall, Barcelona, Spain). The buffer used in the experiments was that recommended by the manufacturer. […] The peptide concentrations were in a range from 1 to 10 μM during the association step. The general scheme of the protein association/dissociation reactions in the BLItz system for the D-NLS peptides was as follows: 30 s of initial baseline acquisition with the 10 × kinetics buffer (provided by the manufacturer); 120 s of loading either Impα3 and ∆Impα3 into the biosensor; 30 s of baseline acquisition with the 10 × kinetics buffer; 120 s of association of each peptide to the biosensor (which had been previously loaded with the importin species); and 120 s of monitoring of the dissociation of each peptide from the biosensor. All experiments were carried out at 25 °C.\n(§4) Fittings of the BLI sensorgrams was carried out by using KaleidaGraph, as previously described. The interferometry response during the association step, R(t) (measured in response units, RU), and the binding rate, dR(t)/dt, could be used to evaluate the kinetics of the formation of the complex between Impα3/∆Impα3 and each D-NLS, according to:(2) dR/dt=konD-NLSRmax−Rt−koffR(t) where Rmax is proportional to the total concentration of biosensor-bound importin species; and [D-NLS] represents the concentration of the corresponding D-NLS peptide.\n(§5) In Equation (2), R(t) is given by:(3) Rt= Req−Reqe^(−kobs t−t0) where Req is the steady-state (or equilibrium) response obtained at infinite time, when dR(t)/dt = 0, and t0 = 180 s is the time at which the association step between biosensor-immobilized Impα3/∆Impα3 and D-NLS in the solution started. We fitted the experimentally obtained R(t) under any condition as:(4) Rt= Req−Reqe^−kobs t−t0−R’eq(t−t0) where R^′eq was included to consider the lineal drift observed at longer times.\n(§6) The dissociation process was always fitted to a single exponential, with R(t) given by:(6) Rt=R1 e^(−kofft−t0)−R^″eq(t−t0) where t0 = 300 is the time at which the dissociation of the D-NLS from the biosensor-bound Impα3/∆Impα3 started in our experimental set-up, R1 is the response level when dissociation starts, and the parameter R^″eq considers the linear drift observed at longer times.\n(§7) The experiments were repeated at least twice for each peptide with each importin species."}, "[4]": {"test": "Translational diffusion NMR (DOSY) of NLS peptides", "format": "physicochemical", "conditions": "~100 μM peptide, 50 mM deuterated Tris pH 7.2, 100% D2O, 10 °C", "text": "For the four peptides, we measured the experimental value of D for dioxane ranging from (1.2 ± 0.1) × 10^−5 to (1.05 ± 0.02) × 10^−5 cm^2 s^−1 in each solution containing the corresponding peptide; we assumed a hydrodynamic radius of 2.12 Å for dioxane (Table 1) under any condition. […] Furthermore, the values of D were similar for the D- and L-peptides, and the latter were already being described as disordered. Thus, we can conclude that the four D-peptides were monomeric and disordered, like the L-form counterparts, and, then, there was no difference in the hydrodynamic properties of the peptides by changing the enantiomeric nature of the residues.\nThe NMR spectra were acquired at 10 °C on a Bruker Avance III spectrometer (Bruker GmbH, Mannheim, Germany), equipped with a triple-resonance probe and z-pulse field gradients. All NMR experiments with D-NLS peptides were carried out in 50 mM deuterated Tris buffer (not corrected for isotope effects), pH 7.2. Spectra were calibrated with TSP, by considering pH-dependent changes in its chemical shifts; probe temperature was calibrated with pure methanol.\nThe typical D-NLS peptide concentrations in DOSY experiments were ~100 μM, and 128 scans were acquired, in which the gradient strength was varied linearly in sixteen steps, between 2 and 95% of the total power of the gradient coil. Measurements of the translational self-diffusion coefficient, D, were performed with the pulsed-gradient spin-echo sequence in the presence of 100% D2O. Details on the experimental conditions and fitting of the resulting curves have been described elsewhere. Gradient strength was calibrated by using the value of D for the residual proton water signal in a sample containing 100% D2O, in a 5 mm tube [23]. Gradient length was 2.5 ms; the time between the two pulse gradients in the sequence was 250 ms; and the recovery delay between the bipolar gradients was 100 μs. The signals from methyl groups between 0.8 and 1.0 ppm were used for peak integration, for all the D-NLS peptides. A final concentration of 1% of dioxane, which was assumed to have a hydrodynamic radius Rh of 2.12 Å [23], was added to the solution of each peptide."}, "[5]": {"target": "T1, Impα3", "test": "Biolayer interferometry (BLI) binding to Impα3", "conditions": "peptide 1–10 μM, 25 °C", "experimental": "as §3, §4, §5, §6, §7"}, "[6]": {"conditions": "sequence synthesized in reverse order; ref [38]; cited from earlier work", "text": "A few additional conclusions can be drawn from our results, in the context of their relevance for understanding the importance of importin in the regulation of the nucleocytoplasmic transport of cargo proteins. Although we cannot rule out that the intrinsic high flexibility of Impα3 could be involved in its lack of selectivity towards different stereoisomers, we believe the following: (i) the intrinsic disorder of the isolated NLS peptides (derived from the cargos), as shown by NMR (Figure 1 and Figure 2), and (ii) the fact that the peptides remained disordered upon binding to the importin spe ..."}, "[7]": {"conditions": "L-NLS counterparts, literature values, ref [5],[6],[7], cited from earlier work", "text": "Table 1 Hydrodynamic properties of the D-NLS peptides ^a. | column: D (cm^2 s^−1) × 10^6 (Rh, Å) (L-NLS) ^d"}, "[8]": {"target": "T1, Impα3", "conditions": "literature value for L-NLS counterpart, ref [5],[6],[7], read-out: Kd (ITC) (L-NLS Peptide); cited from earlier work", "text": "Table 2 Kinetic and thermodynamic parameters of the binding reaction of D-NLS peptides to Impα3 ^a. | column: Kd (μM) (ITC/Fluorescence) (L-NLS Peptide) ^c || We also used ITC to determine the thermodynamic binding parameters in the association of each of the peptides to both importin species (Figure 4). […] For D-NLS-NUPR1L, the values of enthalpy, ∆H, were −2.5 ± 0.2 and −4.5 ± 0.7 kcal mol^−1 for the binding to Impα3 and ∆Impα3, respectively. On the other hand, the values previously ..."}, "[9]": {"target": "T2, ∆Impα3", "conditions": "literature value for L-NLS counterpart, ref [5],[6],[7], read-out: Kd (ITC) (L-NLS Peptide); cited from earlier work", "text": "Table 3 Kinetic and thermodynamic parameters of the binding reaction of D-NLS peptides to ∆Impα3 ^a. | column: Kd (μM) (ITC/Fluorescence) (L-NLS Peptide) ^c || We also used ITC to determine the thermodynamic binding parameters in the association of each of the peptides to both importin species (Figure 4). […] For D-NLS-NUPR1L, the values of enthalpy, ∆H, were −2.5 ± 0.2 and −4.5 ± 0.7 kcal mol^−1 for the binding to Impα3 and ∆Impα3, respectively. On the other hand, the values previously ..."}}, "note": "Non-standard residues stand in square brackets, D forms with d. Residues, ends and D or L forms follow the SMILES beside them.", "data": [{"compound": "CC(=O)N[C@H](CCCNC(=N)N)C(=O)N[C@@H](C(=O)N[C@H](CCCNC(=N)N)C(=O)N[C@H](CCCNC(=N)N)C(=O)N[C@H](CCC(=O)O)C(=O)N[C@H](CCC(N)=O)C(=O)N[C@H](C)C(=O)N[C@H](CC(C)C)C(=O)N[C@H](CCCNC(=N)N)C(=O)N[C@@H](C(=O)N[C@H](CC(N)=O)C(=O)N[C@H](Cc1c[nH]c2ccccc12)C(=O)N1CCC[C@@H]1C(=O)N[C@H](C)C(=O)N1CCC[C@@H]1C(=O)NCC(=O)NCC(=O)N[C@H](Cc1c[nH]cn1)C(=O)N[C@H](CCC(=O)O)C(=O)N[C@H](CCCNC(=N)N)C(=O)N[C@H](CCCCN)C(=O)N[C@@H](C(=O)N[C@H](C)C(=O)N[C@H](CCC(N)=O)C(N)=O)C(C)C)[C@H](C)O)[C@H](C)O", "note": "[D-NLS-NUPR1L] (Ac-[dR][dT][dR][dR][dE][dQ][dA][dL][dR][dT][dN][dW][dP][dA][dP]GG[dH][dE][dR][dK][dV][dA][dQ]-NH2)", "values": [{"measurement": "enthalpy ∆H", "setting": "[1]", "result": "-2.5 ± 0.2", "unit": "kcal/mol"}, {"measurement": "enthalpy ∆H", "setting": "[2]", "result": "-4.5 ± 0.7", "unit": "kcal/mol"}, {"measurement": "kon", "setting": "[3]", "result": "51200 ± 700", "unit": "M⁻¹ s⁻¹"}, {"measurement": "Diffusion coefficient D", "setting": "[4]", "result": "2.0 ± 0.3", "unit": "cm^2 s^−1 × 10^6"}, {"measurement": "kon", "setting": "[5]; BLItz, Impα3 immobilized via His-tag (0.25 μM), 10 × kinetics buffer, error from pseudo-first order fit, at least two repeats, read-out: kon", "result": "68000 ± 7000", "unit": "M⁻¹ s⁻¹"}, {"measurement": "koff", "setting": "[5]; Impα3 immobilized via His-tag, error from pseudo-first order fit (Equation 5)", "result": "0.069 ± 0.04", "unit": "s⁻¹"}]}, {"compound": "DLKVRKAA", "values": [{"measurement": "Binding, dependence on stereochemistry", "setting": "[6]", "result": "binding insensitive to L-/D-stereochemistry has been observed"}]}, {"compound": "L-NLS-NUPR1: wild-type isolated NLS region of NUPR1, comprising residues 54 to 74 (TNRPSPGGHERKLVTKLQNSE; UniProt O60356 54-74, looked up, fragment)", "values": [{"measurement": "Hydrodynamic radius Rh (L-NLS)", "setting": "[7]; estimated from Rh of dioxane", "result": "11 ± 1", "unit": "Å"}, {"measurement": "Diffusion coefficient D (L-NLS)", "setting": "[7]", "result": "1.85 ± 0.04 10^-6 cm^2 s^-1"}, {"measurement": "Kd", "setting": "[8]", "result": 1700, "unit": "nM"}, {"measurement": "Kd", "setting": "[9]", "result": 950, "unit": "nM"}]}]}
